Results: the supplement of paper PMC10307832

Columns and labels:
Assay in all cases: relative viability (nuclei count vs DMSO), 5 days (fraction); higher = more cells survive
Carboplatin + Linsitinib = compound: C1CC(C1)(C(=O)O)C(=O)O.[NH2-].[NH2-].[Pt+2] [Carboplatin] + C[C@]1(O)C[C@@H](c2nc(-c3ccc4ccc(-c5ccccc5)nc4c3)c3c(N)nccn32)C1 [Linsitinib] (partner 1 µM)
How it was run: (§1)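 Lung cancer cell lines were pin-tool dosed in 1536-well plates on the day after seeding, with either a lone drug or a fixed anchor-drug dose plus five library-drug doses (not always all listed) in √10 steps. Nuclei were counted on 4× images after 5 days. Relative viability is the ratio of treated-well to vehicle-well nuclei counts, with each value a median of duplicate plates.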

GSK126 + Navitoclax = compound: CC[C@H](C)N1C=C(C2=C(C=C(C=C21)C3=CN=C(C=C3)N4CCNCC4)C(=O)NCC5=C(C=C(NC5=O)C)C)C [GSK126] + CC1(C)CCC(c2ccc(Cl)cc2)=C(CN2CCN(c3ccc(C(=O)NS(=O)(=O)c4ccc(N[C@H](CCN5CCOCC5)CSc5ccccc5)c(S(=O)(=O)C(F)(F)F)c4)cc3)CC2)C1 [Navitoclax] (partner 0.5 µM)
How it was run: as §1

MLN4924 + Foretinib = compound: NS(=O)(=O)OC[C@@H]1C[C@@H](n2ccc3c(N[C@H]4CCc5ccccc54)ncnc32)C[C@@H]1O [MLN4924] + COc1cc2c(Oc3ccc(NC(=O)C4(C(=O)Nc5ccc(F)cc5)CC4)cc3F)ccnc2cc1OCCCN1CCOCC1 [Foretinib] (partner 0.25 µM)
How it was run: as §1

MLN4924 + Alpelisib = compound: NS(=O)(=O)OC[C@@H]1C[C@@H](n2ccc3c(N[C@H]4CCc5ccccc54)ncnc32)C[C@@H]1O [MLN4924] + Cc1nc(NC(=O)N2CCC[C@H]2C(N)=O)sc1-c1ccnc(C(C)(C)C(F)(F)F)c1 [Alpelisib] (partner 2 µM)
How it was run: as §1

| Cell Line | relative viability (Carboplatin + Linsitinib; first compound 0.08 µM) | relative viability (Carboplatin + Linsitinib; first compound 0.253 µM) | relative viability (Carboplatin + Linsitinib; first compound 0.8 µM) | relative viability (Carboplatin + Linsitinib; first compound 2.53 µM) | relative viability (Carboplatin + Linsitinib; first compound 8 µM) | relative viability (GSK126 + Navitoclax; first compound 0.08 µM) | relative viability (GSK126 + Navitoclax; first compound 0.253 µM) | relative viability (GSK126 + Navitoclax; first compound 0.8 µM) | relative viability (GSK126 + Navitoclax; first compound 2.53 µM) | relative viability (GSK126 + Navitoclax; first compound 8 µM) | relative viability (MLN4924 + Foretinib; first compound 0.04 µM) | relative viability (MLN4924 + Foretinib; first compound 0.1265 µM) | relative viability (MLN4924 + Foretinib; first compound 0.4 µM) | relative viability (MLN4924 + Foretinib; first compound 1.265 µM) | relative viability (MLN4924 + Foretinib; first compound 4 µM) | relative viability (MLN4924 + Alpelisib; first compound 0.04 µM) | relative viability (MLN4924 + Alpelisib; first compound 0.1265 µM) | relative viability (MLN4924 + Alpelisib; first compound 0.4 µM) | relative viability (MLN4924 + Alpelisib; first compound 1.265 µM) | relative viability (MLN4924 + Alpelisib; first compound 4 µM) |
| --- | --- | --- | --- | --- | --- | --- | --- | --- | --- | --- | --- | --- | --- | --- | --- | --- | --- | --- | --- | --- |
| LXF-289 | 0.992 | 1.02 | 0.912 | 0.939 | 0.926 | 0.979 | 0.912 | 0.935 | 0.986 | 0.981 | 0.846 | 0.564 | 0.565 | 0.188 | 0.0965 | 0.814 | 0.715 | 0.452 | 0.231 | 0.142 |
| EMC-BAC-2 | 0.84 | 0.799 | 0.801 | 0.804 | 0.717 | 1.09 | 1.18 | 1.14 | 1.18 | 1.23 | 0.959 | 0.593 | 0.248 | 0.224 | 0.282 | 0.806 | 0.326 | 0.194 | 0.15 | 0.14 |
| LC-2-ad | 0.903 | 0.859 | 0.808 | 0.752 | 0.721 | 0.468 | 0.383 | 0.506 | 0.477 | 0.484 | 0.845 | 0.793 | 0.592 | 0.212 | 0.186 | 0.834 | 0.729 | 0.41 | 0.153 | 0.0751 |
| NCI-H647 | 1.41 | 1.24 | 1.11 | 0.932 | 0.503 | 1.14 | 1.05 | 1.07 | 1.11 | 1.15 | 0.818 | 0.848 | 0.188 | 0.0561 | 0.0661 | 1.04 | 0.653 | 0.18 | 0.0485 | 0.0516 |
| NCI-H1734 | 0.823 | 0.904 | 0.909 | 0.876 | 0.851 | 0.895 | 0.845 | 0.843 | 0.881 | 0.86 | 0.938 | 0.866 | 0.241 | 0.145 | 0.134 | 0.947 | 0.95 | 0.246 | 0.139 | 0.118 |
